Drawing on ChEMBL document CHEMBL4842329 (Eur J Med Chem, 2021), this text covers Ki and IC50 for 25 compounds.

The target in one test is T1, Sodium-dependent serotonin transporter (Homo sapiens, UniProt P31645).
T1 sequence (P31645 whole entry): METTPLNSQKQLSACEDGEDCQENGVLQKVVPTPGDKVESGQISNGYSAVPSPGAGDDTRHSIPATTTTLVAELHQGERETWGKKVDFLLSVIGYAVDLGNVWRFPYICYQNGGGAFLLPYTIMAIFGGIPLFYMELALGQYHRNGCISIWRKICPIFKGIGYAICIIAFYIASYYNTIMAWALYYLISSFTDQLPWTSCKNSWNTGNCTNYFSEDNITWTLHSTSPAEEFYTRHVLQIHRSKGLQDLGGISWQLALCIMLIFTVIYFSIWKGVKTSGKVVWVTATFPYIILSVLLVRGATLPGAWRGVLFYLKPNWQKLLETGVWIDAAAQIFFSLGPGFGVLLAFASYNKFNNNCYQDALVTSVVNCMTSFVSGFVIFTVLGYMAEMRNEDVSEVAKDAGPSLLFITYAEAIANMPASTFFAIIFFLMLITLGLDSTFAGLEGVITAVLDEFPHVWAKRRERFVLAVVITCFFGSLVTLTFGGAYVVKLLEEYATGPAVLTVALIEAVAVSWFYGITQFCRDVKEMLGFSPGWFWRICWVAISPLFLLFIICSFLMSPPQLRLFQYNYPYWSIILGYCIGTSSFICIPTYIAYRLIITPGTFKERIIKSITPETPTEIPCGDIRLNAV
Assay: not given
As a reminder, the Ki is a dissociation constant, usually derived from enzyme kinetics or from competition with a known ligand. Low values mean higher affinity, high ones lower affinity. As to `Brc1ccc([C@@H]2CCNC[C@H]2COc2ccc3c(c2)OCO3)cc1`, the affinity corresponds to a Ki of 1.07 nM.

The target of a further test is T1, Sodium-dependent serotonin transporter.
Assay: not given
The format is cell-based, COS7. This is another data set of the same source.
One may read the IC50 as the concentration that inhibits the measured activity by half. High values mean lower potency, low ones higher potency. Take `COC(=O)C1CCC2CC(O)C1N2c1ccccc1` (stereo not given): the IC50 was determined as 15 nM. This lies in the double-digit nanomolar range.

With `COC(=O)C1CCC2CC(O)C1N2c1ccc(Cl)c(Cl)c1` (stereo not given), the 50% inhibitory concentration (IC50) was 5650 nM. This IC50 is about 380-fold higher than that of the compound before.

A further test has the same target. The test is described as follows: biochemical. It is filed as cell-based, HEK293.
The compound `CNCCC(Oc1ccc(I)cc1F)c1ccccc1` (stereo not given) returned an inhibitory constant (Ki) of 23 nM.

In turn, `COCCCC/C(=N\OCCN)c1ccc(Cl)cc1` yielded a Ki of 61 nM.

`CNCCC(Oc1ccc(Br)cc1)c1ccccc1` (stereo not given) gave a Ki of 24 nM.

Compound `COCCCC/C(=N\OCCN)c1ccc(I)cc1` displayed a Ki of 15 nM.

Regarding `CNCCC(Oc1ccc(Cl)cc1F)c1ccccc1` (stereo not given), the Ki was found to be 52 nM.

`COCCCC/C(=N\OCCN)c1ccc(Br)cc1`: the Ki stood at 23 nM. This Ki is about 2.3-fold lower than that of the compound before.

The compound `COCCCC/C(=N\OCCN)c1ccc(Cl)c(Cl)c1` yielded an inhibition constant Ki of 9 nM.

With `CNCCC(Oc1ccc(Br)c(F)c1)c1ccccc1` (stereo not given), affinity was put at a Ki of 19 nM.

As to `COCCCC/C(=N\OCCN)c1ccc(F)cc1`, the Ki was 1620 nM.

In turn, `CNCCC(Oc1cccc(F)c1)c1ccccc1` (stereo not given) registered an inhibition constant (Ki) of 349 nM.

With `CNCCC(Oc1cccc(Cl)c1)c1ccccc1` (stereo not given), the Ki worked out at 66 nM.

In turn, `CNCCC(Oc1ccc(Cl)cc1)c1ccccc1` (stereo not given) displayed a Ki of 55 nM.

Turning to `CNCCC(Oc1ccccc1)c1ccccc1` (stereo not given), affinity was put at a Ki of 1460 nM.

Take `CNCCC(Oc1ccc(I)cc1)c1ccccc1` (stereo not given): the Ki was determined as 14 nM.

As to `CNCCC(Oc1ccc(Cl)c(Cl)c1)c1ccccc1` (stereo not given), the affinity, expressed as Ki, was 5 nM.

`COCCCC/C(=N\OCCN)c1ccc(Cl)cc1F` gave a Ki of 202 nM.

In the case of `COCCCC/C(=N\OCCN)c1ccc(Br)cc1F`, the Ki turned out to be 137 nM.

As to `CNCCC(Oc1ccc(Br)cc1F)c1ccccc1` (stereo not given), the affinity corresponds to a Ki of 41 nM. Against the preceding compound, the Ki is about 3.3-fold lower.

In turn, `COCCCC/C(=N\OCCN)c1ccc(Br)c(F)c1` gave a Ki of 21 nM.

Compound `CNCCC(Oc1ccc(F)cc1)c1ccccc1` (stereo not given) yielded an inhibition constant (Ki) of 543 nM.

For `CNCCC(Oc1ccc(Cl)c(F)c1)c1ccccc1` (stereo not given), affinity was put at a Ki of 31 nM.

`COCCCC/C(=N\OCCN)c1ccc(Cl)c(F)c1`: the Ki came out at 62 nM.
